Laboratory results from patent US7932270B2 (Cytokinetics, Inc., priority 2006, dated 2011).

molecular target: T1, chicken gizzard smooth muscle myosin subfragment-1 chemically crosslinked to cardiac or skeletal actin (Gallus gallus, UniProt P10587); assay: Smooth muscle myosin ATPase dose response assay (pyruvate kinase/horseradish peroxidase/pyruvate oxidase-coupled, amplex red fluorescence); format: biochemical; details: read-out: IC50 Arithmetic Mean
T1 construct: chicken gizzard smooth muscle myosin subfragment-1; from tissue; host or cells: chicken gizzard
T1 sequence (P02607 2-151): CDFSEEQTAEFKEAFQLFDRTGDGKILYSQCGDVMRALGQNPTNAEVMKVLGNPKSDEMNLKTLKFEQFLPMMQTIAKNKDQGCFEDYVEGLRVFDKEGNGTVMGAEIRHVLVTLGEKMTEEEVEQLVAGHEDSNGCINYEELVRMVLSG
T1 sequence (P10587 84-789): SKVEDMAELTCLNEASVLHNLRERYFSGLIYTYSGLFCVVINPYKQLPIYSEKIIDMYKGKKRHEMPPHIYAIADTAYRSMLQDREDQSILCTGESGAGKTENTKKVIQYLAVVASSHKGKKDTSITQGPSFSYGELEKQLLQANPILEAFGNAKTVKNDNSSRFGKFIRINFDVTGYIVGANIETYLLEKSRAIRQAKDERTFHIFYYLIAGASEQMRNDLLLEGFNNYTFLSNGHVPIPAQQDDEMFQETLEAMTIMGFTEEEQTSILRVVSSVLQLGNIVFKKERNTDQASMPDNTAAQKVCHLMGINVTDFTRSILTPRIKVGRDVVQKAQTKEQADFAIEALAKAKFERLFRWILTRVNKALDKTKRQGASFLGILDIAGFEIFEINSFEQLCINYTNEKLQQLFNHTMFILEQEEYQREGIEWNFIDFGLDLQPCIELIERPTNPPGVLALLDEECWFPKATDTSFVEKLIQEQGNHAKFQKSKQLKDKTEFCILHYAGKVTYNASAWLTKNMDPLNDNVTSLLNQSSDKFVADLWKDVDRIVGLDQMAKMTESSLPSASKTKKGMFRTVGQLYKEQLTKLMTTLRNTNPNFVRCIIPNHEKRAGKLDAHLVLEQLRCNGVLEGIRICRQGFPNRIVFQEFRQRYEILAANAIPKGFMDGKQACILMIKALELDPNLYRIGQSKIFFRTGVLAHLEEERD
How it was run: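 ATPase monitored by amplex red fluorescence (ex 480/em 615 nm) via pyruvate oxidase/HRP coupling, pH 7.00, ATP 0.15 mM. Enzyme: smooth muscle S1-actin crosslinked conjugate, amount set empirically by titration. Dose-response fitted with 4-parameter Hill equation for IC50.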

| SMILES | IC50 [nM] |
| --- | --- |
| N#Cc1ccccc1-c1nc(NCCc2cccc(F)c2)c(C(=O)NC[C@H]2CCCN2C(=O)CCN)cc1F [N-{[(2R)-1-(3-aminopropanoyl)pyrrolidin-2-yl]methyl}(6-(2-cyanophenyl)-5-fluoro-2-{[2-(3-fluorophenyl)ethyl]amino}(3-pyridyl))carboxamide] | 42 |
| Cc1cc(C(=O)NC[C@H]2CCC(=O)N2CCCN)c(NCCc2cccc(F)c2)nc1-c1cnn(C)c1 [N-{[(2R)-1-(3-aminopropyl)-5-oxopyrrolidin-2-yl]methyl}(2-{[2-(3-fluorophenyl)ethyl]amino}-5-methyl-6-(1-methylpyrazol-4-yl)(3-pyridyl))carboxamide] | 577 |
| Cn1cc(-c2ccc(C(=O)NC[C@H]3CCC(=O)N3CCCN)c(NCCc3cccc(F)c3)n2)cn1 [N-{[(2R)-1-(3-aminopropyl)-5-oxopyrrolidin-2-yl]methyl}(2-{[2-(3-fluorophenyl)ethyl]amino}-6-(1-methylpyrazol-4-yl)(3-pyridyl))carboxamide] | 290 |
| NCCCN1C(=O)CC[C@@H]1CNC(=O)c1ccc(-c2cn[nH]c2)nc1NCCc1cccc(F)c1 [N-{[(2R)-1-(3-aminopropyl)-5-oxopyrrolidin-2-yl]methyl}(2-{[2-(3-fluorophenyl)ethyl]amino}-6-pyrazol-4-yl(3-pyridyl))carboxamide] | 966 |
| Cn1cc(-c2nc(NCCc3cccc(F)c3)c(C(=O)NC[C@H]3CCC(=O)N3CCCN)cc2Cl)cn1 [N-{[(2R)-1-(3-aminopropyl)-5-oxopyrrolidin-2-yl]methyl}(5-chloro-2-{[2-(3-fluorophenyl)ethyl]amino}-6-(1-methylpyrazol-4-yl)(3-pyridyl))carboxamide] | 160 |
| Cn1cc(-c2nc(NCCc3cccc(F)c3)c(C(=O)NC[C@H]3CCC(=O)N3CCCN)cc2C#N)cn1 [N-{[(2R)-1-(3-aminopropyl)-5-oxopyrrolidin-2-yl]methyl}(5-cyano-2-{[2-(3-fluorophenyl)ethyl]amino}-6-(1-methylpyrazol-4-yl)(3-pyridyl))carboxamide] | 310 |
| N#Cc1cc(C(=O)NC[C@H]2CCC(=O)N2CCCN)c(NCCc2cccc(F)c2)nc1-c1cn[nH]c1 [N-{[(2R)-1-(3-aminopropyl)-5-oxopyrrolidin-2-yl]methyl}(5-cyano-2-{[2-(3-fluorophenyl)ethyl]amino}-6-pyrazol-4-yl(3-pyridyl))carboxamide] | 735 |
| Cn1cc(-c2nc(NCCc3cccc(F)c3)c(C(=O)NC[C@H]3CCC(=O)N3CCCN)cc2F)cn1 [N-{[(2R)-1-(3-aminopropyl)-5-oxopyrrolidin-2-yl]methyl}(5-fluoro-2-{[2-(3-fluorophenyl)ethyl]amino}-6-(1-methylpyrazol-4-yl)(3-pyridyl))carboxamide] | 79 |
| NCCCN1C(=O)CC[C@@H]1CNC(=O)c1cc(F)c(-c2cn[nH]c2)nc1NCCc1cccc(F)c1 [N-{[(2R)-1-(3-aminopropyl)-5-oxopyrrolidin-2-yl]methyl}(5-fluoro-2-{[2-(3-fluorophenyl)ethyl]amino}-6-pyrazol-4-yl(3-pyridyl))carboxamide] | 66 |
| N#Cc1ccccc1-c1ccc(C(=O)NC[C@H]2CCC(=O)N2CCCN)c(NCCc2cccc(F)c2)n1 [N-{[(2R)-1-(3-aminopropyl)-5-oxopyrrolidin-2-yl]methyl}(6-(2-cyanophenyl)-2-{[2-(3-fluorophenyl)ethyl]amino}(3-pyridyl))carboxamide] | 42 |
| Cc1cc(C(=O)NC[C@H]2CCC(=O)N2CCCN)c(NCCc2cccc(F)c2)nc1-c1ccccc1C#N [N-{[(2R)-1-(3-aminopropyl)-5-oxopyrrolidin-2-yl]methyl}(6-(2-cyanophenyl)-2-{[2-(3-fluorophenyl)ethyl]amino}-5-methyl(3-pyridyl))carboxamide] | 1230 |
| N#Cc1ccccc1-c1nc(NCCc2cccc(F)c2)c(C(=O)NC[C@H]2CCC(=O)N2CCCN)cc1F [N-{[(2R)-1-(3-aminopropyl)-5-oxopyrrolidin-2-yl]methyl}(6-(2-cyanophenyl)-5-fluoro-2-{[2-(3-fluorophenyl)ethyl]amino}(3-pyridyl))carboxamide] | 42 |
